Results published in ChEMBL document CHEMBL5038675, “Selective A3 Adenosine Receptor Antagonist Radioligand for Human and Rodent Species” (ACS Med Chem Lett, 2022).
One block for each compound: values may come before it.

Legend:
[1] = molecular target: Adenosine receptor A1 (Rattus norvegicus) (UniProt P25099); assay: Displacement of [3H] DPCPX from rat adenosine A1 receptor expressed in HEK293 cells at 10 uM incubated for 60 mins by radioligand binding assay; format: cell-based
[2] = molecular target: Adenosine receptor A2b (Rattus norvegicus) (UniProt P29276); assay: Displacement of [3H] DPCPX from rat adenosine A2B receptor expressed in HEK293 cells at 10 uM incubated for 60 mins by radioligand binding assay; format: cell-based
Adenosine receptor A2b (Rattus norvegicus), sequence (P29276 whole entry): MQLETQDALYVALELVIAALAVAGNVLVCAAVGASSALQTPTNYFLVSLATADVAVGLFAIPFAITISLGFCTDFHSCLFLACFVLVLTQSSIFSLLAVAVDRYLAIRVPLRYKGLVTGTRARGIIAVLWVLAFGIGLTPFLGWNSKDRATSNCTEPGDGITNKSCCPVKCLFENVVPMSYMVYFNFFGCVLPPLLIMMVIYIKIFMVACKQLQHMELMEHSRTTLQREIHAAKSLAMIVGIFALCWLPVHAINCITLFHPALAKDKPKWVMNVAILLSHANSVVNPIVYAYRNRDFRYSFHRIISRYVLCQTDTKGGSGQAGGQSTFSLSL

Adenosine receptor A3 [3] = molecular target: T1, Adenosine receptor A3 (Mus musculus, UniProt Q61618); format: cell-based, HEK293
T1 sequence (Q61618 whole entry): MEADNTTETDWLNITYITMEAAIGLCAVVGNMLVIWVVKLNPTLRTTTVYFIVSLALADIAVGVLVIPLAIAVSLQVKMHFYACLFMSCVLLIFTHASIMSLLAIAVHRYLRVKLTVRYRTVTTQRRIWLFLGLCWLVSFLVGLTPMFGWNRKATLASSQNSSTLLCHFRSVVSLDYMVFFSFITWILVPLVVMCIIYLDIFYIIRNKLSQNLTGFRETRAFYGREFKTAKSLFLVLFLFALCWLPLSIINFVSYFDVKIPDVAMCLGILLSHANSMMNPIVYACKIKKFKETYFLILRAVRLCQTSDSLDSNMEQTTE

Adenosine receptor A3 [4] = molecular target: T2, Adenosine receptor A3 (Rattus norvegicus, UniProt P28647); format: cell-based, HEK293
T2 sequence (P28647 whole entry): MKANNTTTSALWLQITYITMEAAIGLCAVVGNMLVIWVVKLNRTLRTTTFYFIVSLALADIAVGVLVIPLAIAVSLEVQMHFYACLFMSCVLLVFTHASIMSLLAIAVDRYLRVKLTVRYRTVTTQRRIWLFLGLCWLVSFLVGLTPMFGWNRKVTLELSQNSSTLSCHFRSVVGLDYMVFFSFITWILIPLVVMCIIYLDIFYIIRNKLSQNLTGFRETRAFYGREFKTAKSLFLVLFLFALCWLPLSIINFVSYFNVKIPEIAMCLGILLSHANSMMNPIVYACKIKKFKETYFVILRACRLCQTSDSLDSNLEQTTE

[5] = molecular target: Adenosine receptor A2b (Mus musculus) (UniProt Q60614); assay: Displacement of [3H] DPCPX from mouse adenosine A2B receptor expressed in HEK293 cells at 10 uM incubated for 60 mins by radioligand binding assay; format: cell-based
Adenosine receptor A2b (Mus musculus), sequence (Q60614 whole entry): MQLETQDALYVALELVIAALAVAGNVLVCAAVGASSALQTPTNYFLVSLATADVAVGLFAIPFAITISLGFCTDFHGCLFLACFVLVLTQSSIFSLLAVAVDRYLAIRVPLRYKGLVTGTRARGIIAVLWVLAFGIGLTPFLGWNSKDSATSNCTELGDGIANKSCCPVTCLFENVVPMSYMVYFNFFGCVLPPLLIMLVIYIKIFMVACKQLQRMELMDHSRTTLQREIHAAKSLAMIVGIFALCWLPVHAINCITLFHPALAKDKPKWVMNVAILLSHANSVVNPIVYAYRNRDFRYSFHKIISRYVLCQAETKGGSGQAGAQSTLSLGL

[6] = molecular target: Adenosine receptor A1 (Mus musculus) (UniProt Q60612); assay: Displacement of [3H] DPCPX from mouse adenosine A1 receptor expressed in HEK293 cells at 10 uM incubated for 60 mins by radioligand binding assay; format: cell-based
Adenosine receptor A3 [7] = molecular target: T3, Adenosine receptor A3 (Homo sapiens, UniProt P0DMS8); format: cell-based, HEK293
T3 sequence (P0DMS8 whole entry): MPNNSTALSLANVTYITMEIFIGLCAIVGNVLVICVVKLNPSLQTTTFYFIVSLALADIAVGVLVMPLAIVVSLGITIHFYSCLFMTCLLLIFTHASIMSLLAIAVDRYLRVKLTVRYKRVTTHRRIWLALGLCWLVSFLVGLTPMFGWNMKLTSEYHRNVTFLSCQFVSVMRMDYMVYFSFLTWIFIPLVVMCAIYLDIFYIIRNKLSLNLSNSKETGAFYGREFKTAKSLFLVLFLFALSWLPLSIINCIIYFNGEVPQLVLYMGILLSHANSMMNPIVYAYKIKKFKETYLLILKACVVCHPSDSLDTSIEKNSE

[8] = molecular target: T4, Adenosine receptor A1 (Homo sapiens) (UniProt P30542); assay: Displacement of [3H] DPCPX from human adenosine A1 receptor expressed in HEK293 cells at 10 uM incubated for 60 mins by radioligand binding assay; format: cell-based
T4 sequence (whole entry): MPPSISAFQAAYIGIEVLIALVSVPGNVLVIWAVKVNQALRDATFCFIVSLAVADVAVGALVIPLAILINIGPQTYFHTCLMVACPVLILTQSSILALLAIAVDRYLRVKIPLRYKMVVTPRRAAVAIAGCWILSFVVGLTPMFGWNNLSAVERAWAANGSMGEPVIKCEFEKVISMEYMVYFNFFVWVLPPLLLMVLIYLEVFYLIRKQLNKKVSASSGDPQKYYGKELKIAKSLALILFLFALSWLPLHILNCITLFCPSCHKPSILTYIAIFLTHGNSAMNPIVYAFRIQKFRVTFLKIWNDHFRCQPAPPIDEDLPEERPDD

Adenosine receptor A2a [9] = molecular target: T5, Adenosine receptor A2a (Homo sapiens, UniProt P29274); assay: Displacement of [3H] ZM241385 from human adenosine A2A receptor expressed in HEK293 cells at 10 uM incubated for 60 mins by radioligand binding assay; format: cell-based
T5 sequence (P29274 whole entry): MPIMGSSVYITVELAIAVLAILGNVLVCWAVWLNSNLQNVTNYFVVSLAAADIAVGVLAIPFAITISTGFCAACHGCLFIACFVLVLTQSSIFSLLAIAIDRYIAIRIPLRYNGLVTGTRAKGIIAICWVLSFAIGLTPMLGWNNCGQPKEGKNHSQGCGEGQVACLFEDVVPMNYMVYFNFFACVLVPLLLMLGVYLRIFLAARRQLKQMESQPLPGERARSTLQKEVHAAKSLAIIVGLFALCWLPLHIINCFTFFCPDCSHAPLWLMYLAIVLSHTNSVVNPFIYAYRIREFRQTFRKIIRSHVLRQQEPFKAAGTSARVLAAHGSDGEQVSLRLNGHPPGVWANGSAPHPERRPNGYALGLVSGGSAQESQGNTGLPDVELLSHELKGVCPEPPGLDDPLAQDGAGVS

[10] = molecular target: Adenosine receptor A2b (Homo sapiens) (UniProt P29275); assay: Displacement of [3H] DPCPX from human adenosine A2B receptor expressed in HEK293 cells at 10 uM incubated for 60 mins by radioligand binding assay; format: cell-based
Adenosine receptor A2b (Homo sapiens), sequence (P29275 whole entry): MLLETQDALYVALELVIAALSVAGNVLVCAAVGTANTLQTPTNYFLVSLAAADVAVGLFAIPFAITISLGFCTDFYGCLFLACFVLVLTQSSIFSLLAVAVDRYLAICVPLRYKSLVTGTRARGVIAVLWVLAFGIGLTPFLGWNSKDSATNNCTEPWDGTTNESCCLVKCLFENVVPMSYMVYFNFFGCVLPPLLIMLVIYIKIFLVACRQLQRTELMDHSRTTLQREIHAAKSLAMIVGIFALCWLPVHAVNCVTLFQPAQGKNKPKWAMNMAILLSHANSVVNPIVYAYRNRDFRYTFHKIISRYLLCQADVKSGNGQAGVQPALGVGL

[11] = molecular target: Adenosine receptor A2a (Rattus norvegicus) (UniProt P30543); assay: Displacement of [3H] ZM241385 from rat adenosine A2A receptor expressed in HEK293 cells at 10 uM incubated for 60 mins by radioligand binding assay; format: cell-based
Adenosine receptor A2a (Rattus norvegicus), sequence (P30543 whole entry): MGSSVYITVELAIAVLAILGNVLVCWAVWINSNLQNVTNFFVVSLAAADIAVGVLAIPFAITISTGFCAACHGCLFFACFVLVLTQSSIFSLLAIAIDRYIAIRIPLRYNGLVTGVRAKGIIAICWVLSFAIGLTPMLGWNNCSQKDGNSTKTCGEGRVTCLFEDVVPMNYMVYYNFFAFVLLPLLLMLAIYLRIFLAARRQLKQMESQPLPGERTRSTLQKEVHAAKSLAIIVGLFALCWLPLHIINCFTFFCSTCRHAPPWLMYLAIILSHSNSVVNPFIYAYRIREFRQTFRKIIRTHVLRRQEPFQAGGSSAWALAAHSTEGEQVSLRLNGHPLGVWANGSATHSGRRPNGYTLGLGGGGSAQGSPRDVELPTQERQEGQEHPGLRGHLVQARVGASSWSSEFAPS

[12] = molecular target: Adenosine receptor A2a (Mus musculus) (UniProt Q60613); assay: Displacement of [3H] ZM241385 from mouse adenosine A2A receptor expressed in HEK293 cells at 10 uM incubated for 60 mins by radioligand binding assay; format: cell-based
Adenosine receptor A2a (Mus musculus), sequence (Q60613 whole entry): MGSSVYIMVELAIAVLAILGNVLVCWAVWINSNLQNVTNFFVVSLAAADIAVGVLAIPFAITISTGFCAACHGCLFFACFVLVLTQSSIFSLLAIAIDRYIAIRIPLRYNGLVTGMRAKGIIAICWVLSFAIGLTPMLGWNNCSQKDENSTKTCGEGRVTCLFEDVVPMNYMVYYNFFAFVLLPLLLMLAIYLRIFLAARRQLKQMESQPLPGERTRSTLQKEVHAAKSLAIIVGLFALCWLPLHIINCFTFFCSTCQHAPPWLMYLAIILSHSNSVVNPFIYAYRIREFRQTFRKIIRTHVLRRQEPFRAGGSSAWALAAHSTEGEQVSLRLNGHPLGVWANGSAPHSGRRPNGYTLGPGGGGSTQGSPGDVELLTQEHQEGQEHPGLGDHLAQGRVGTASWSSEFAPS

[13] = Volume of distribution in Sprague-Dawley rat plasma at 1 mg/kg, iv measured after 8 hrs by LC-MS/MS analysis; format: ADME, organism-based
[14] = Lipophilicity, logP of compound; format: physicochemical; settings: octanol/water
Adenosine receptor A2b [15] = molecular target: Adenosine receptor A2b (Mus musculus, UniProt Q60614); assay: Displacement of [3H] DPCPX from mouse adenosine A2B receptor expressed in HEK293 cells incubated for 60 mins by radioligand binding assay; format: cell-based
Adenosine receptor A2b (Mus musculus, UniProt Q60614), sequence (Q60614 whole entry): as the sequence (Q60614 whole entry) above

[16] = Drug concentration in Sprague-Dawley rat plasma assessed as average concentration at 1 mg/kg, iv measured after 8 hrs by LC-MS/MS analysis; format: ADME, organism-based; settings: in vivo
Adenosine receptor A2a [17] = molecular target: Adenosine receptor A2a (Mus musculus, UniProt Q60613); assay: Displacement of [3H] ZM241385 from mouse adenosine A2A receptor expressed in HEK293 cells incubated for 60 mins by radioligand binding assay; format: cell-based
Adenosine receptor A2a (Mus musculus, UniProt Q60613), sequence (Q60613 whole entry): as the sequence (Q60613 whole entry) above

Adenosine receptor A1 [18] = molecular target: T6, Adenosine receptor A1 (Homo sapiens, UniProt P30542); assay: Displacement of [3H] DPCPX from human adenosine A1 receptor expressed in HEK293 cells incubated for 60 mins by radioligand binding assay; format: cell-based
T6 sequence (P30542 whole entry): T4 sequence (whole entry)

[19] = molecular target: 5-hydroxytryptamine receptor 2C (Homo sapiens, UniProt P28335); assay: Binding affinity to human 5-HT2C receptor by radioligand binding assay
5-hydroxytryptamine receptor 2C, sequence (P28335 whole entry): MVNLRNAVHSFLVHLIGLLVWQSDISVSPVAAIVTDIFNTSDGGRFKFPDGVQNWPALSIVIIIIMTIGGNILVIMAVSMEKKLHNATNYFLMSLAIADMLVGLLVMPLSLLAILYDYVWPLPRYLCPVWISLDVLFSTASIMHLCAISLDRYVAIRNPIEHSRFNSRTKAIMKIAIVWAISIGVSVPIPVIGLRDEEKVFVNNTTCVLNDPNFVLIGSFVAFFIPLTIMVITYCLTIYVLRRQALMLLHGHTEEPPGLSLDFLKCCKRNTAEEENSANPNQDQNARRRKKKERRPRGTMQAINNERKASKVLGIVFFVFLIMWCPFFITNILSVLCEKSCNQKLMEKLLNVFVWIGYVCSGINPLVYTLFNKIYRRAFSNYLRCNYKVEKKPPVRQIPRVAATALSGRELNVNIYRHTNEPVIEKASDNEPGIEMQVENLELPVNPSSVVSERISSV

[20] = Drug concentration in Sprague-Dawley rat brain concentration assessed as average concentration at 1 mg/kg, iv measured after 8 hrs by LC-MS/MS analysis; format: ADME, organism-based; settings: in vivo
[21] = C0 in Sprague-Dawley rat brain at 1 mg/kg, iv measured after 8 hrs by LC-MS/MS analysis; format: ADME, organism-based
Adenosine receptor A1 [22] = molecular target: T7, Adenosine receptor A1 (Mus musculus, UniProt Q60612); assay: Displacement of [3H] DPCPX from mouse adenosine A1 receptor expressed in HEK293 cells incubated for 60 mins by radioligand binding assay; format: cell-based
T7 sequence (Q60612 whole entry): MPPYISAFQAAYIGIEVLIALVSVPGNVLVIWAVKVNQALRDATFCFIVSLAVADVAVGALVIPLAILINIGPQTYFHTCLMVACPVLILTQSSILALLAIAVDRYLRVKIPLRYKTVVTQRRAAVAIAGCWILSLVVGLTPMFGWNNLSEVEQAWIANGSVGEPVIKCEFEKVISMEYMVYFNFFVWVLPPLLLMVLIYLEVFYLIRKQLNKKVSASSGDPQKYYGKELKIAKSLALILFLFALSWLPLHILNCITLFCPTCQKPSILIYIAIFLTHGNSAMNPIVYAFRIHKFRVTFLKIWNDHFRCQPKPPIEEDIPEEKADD

[23] = molecular target: Muscarinic acetylcholine receptor M5 (Homo sapiens, UniProt P08912); assay: Binding affinity to human M5 receptor by radioligand binding assay
Muscarinic acetylcholine receptor M5, sequence (P08912 whole entry): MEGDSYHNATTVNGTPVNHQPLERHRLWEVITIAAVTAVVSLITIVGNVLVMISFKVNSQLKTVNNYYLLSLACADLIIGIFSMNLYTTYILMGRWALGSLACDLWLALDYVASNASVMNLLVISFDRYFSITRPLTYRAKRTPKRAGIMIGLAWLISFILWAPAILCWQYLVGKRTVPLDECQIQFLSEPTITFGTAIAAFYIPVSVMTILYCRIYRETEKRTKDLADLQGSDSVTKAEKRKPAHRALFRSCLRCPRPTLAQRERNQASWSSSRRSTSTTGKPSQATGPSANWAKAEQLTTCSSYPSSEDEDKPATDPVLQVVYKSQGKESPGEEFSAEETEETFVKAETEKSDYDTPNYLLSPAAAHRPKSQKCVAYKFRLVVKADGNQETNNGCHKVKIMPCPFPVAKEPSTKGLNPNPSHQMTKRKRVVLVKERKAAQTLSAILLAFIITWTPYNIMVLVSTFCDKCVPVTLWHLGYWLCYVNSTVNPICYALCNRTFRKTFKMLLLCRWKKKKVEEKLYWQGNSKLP

Adenosine receptor A2a [24] = molecular target: T5, Adenosine receptor A2a; assay: Displacement of [3H] ZM241385 from human adenosine A2A receptor expressed in HEK293 cells incubated for 60 mins by radioligand binding assay; format: cell-based
[25] = C0 in Sprague-Dawley rat plasma at 1 mg/kg, iv measured after 8 hrs by LC-MS/MS analysis; format: ADME, organism-based
[26] = Clearance in Sprague-Dawley rat plasma at 1 mg/kg, iv measured after 8 hrs by LC-MS/MS analysis; format: ADME, organism-based
[27] = Half life in Sprague-Dawley rat brain at 1 mg/kg, iv measured after 8 hrs by LC-MS/MS analysis; format: ADME, organism-based
[28] = Volume of distribution in Sprague-Dawley rat brain at 1 mg/kg, iv measured after 8 hrs by LC-MS/MS analysis; format: ADME, organism-based
Adenosine receptor A1 [29] = molecular target: Adenosine receptor A1 (Rattus norvegicus, UniProt P25099); assay: Displacement of [3H] DPCPX from rat adenosine A1 receptor expressed in HEK293 cells incubated for 60 mins by radioligand binding assay; format: cell-based
Adenosine receptor A1 (Rattus norvegicus, UniProt P25099), sequence (P25099 whole entry): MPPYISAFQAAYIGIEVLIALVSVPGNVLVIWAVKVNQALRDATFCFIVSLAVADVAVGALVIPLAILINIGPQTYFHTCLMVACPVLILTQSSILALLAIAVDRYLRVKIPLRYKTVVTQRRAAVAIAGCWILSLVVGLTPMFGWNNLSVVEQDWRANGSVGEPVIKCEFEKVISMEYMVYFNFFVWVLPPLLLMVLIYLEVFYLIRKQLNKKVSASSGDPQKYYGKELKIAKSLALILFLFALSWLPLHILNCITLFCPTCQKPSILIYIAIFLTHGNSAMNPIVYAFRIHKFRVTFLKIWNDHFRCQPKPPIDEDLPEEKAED

Adenosine receptor A2b [30] = molecular target: Adenosine receptor A2b (Rattus norvegicus, UniProt P29276); assay: Displacement of [3H] DPCPX from rat adenosine A2B receptor expressed in HEK293 cells incubated for 60 mins by radioligand binding assay; format: cell-based
Adenosine receptor A2b (Rattus norvegicus, UniProt P29276), sequence (P29276 whole entry): as the sequence (P29276 whole entry) above

[31] = Fraction unbound in Sprague-Dawley rat brain assessed as unbound fraction at 1 mg/kg, iv measured after 8 hrs by LC-MS/MS analysis; format: ADME, organism-based
Adenosine receptor A2a [32] = molecular target: Adenosine receptor A2a (Rattus norvegicus, UniProt P30543); assay: Displacement of [3H] ZM241385 from rat adenosine A2A receptor expressed in HEK293 cells incubated for 60 mins by radioligand binding assay; format: cell-based
Adenosine receptor A2a (Rattus norvegicus, UniProt P30543), sequence (P30543 whole entry): as the sequence (P30543 whole entry) above

[33] = Half life in Sprague-Dawley rat plasma at 1 mg/kg, iv measured after 8 hrs by LC-MS/MS analysis; format: ADME, organism-based
Adenosine receptor A2b [34] = molecular target: Adenosine receptor A2b (Homo sapiens, UniProt P29275); assay: Displacement of [3H] DPCPX from human adenosine A2B receptor expressed in HEK293 cells incubated for 60 mins by radioligand binding assay; format: cell-based
Adenosine receptor A2b (Homo sapiens, UniProt P29275), sequence (P29275 whole entry): as the sequence (P29275 whole entry) above

[35] = Fraction unbound in Sprague-Dawley rat plasma assessed as unbound fraction at 1 mg/kg, iv measured after 8 hrs by LC-MS/MS analysis; format: ADME, organism-based
[36] = molecular target: 5-hydroxytryptamine receptor 2A (Homo sapiens, UniProt P28223); assay: Binding affinity to human 5-HT2A receptor by radioligand binding assay
5-hydroxytryptamine receptor 2A, sequence (P28223 whole entry): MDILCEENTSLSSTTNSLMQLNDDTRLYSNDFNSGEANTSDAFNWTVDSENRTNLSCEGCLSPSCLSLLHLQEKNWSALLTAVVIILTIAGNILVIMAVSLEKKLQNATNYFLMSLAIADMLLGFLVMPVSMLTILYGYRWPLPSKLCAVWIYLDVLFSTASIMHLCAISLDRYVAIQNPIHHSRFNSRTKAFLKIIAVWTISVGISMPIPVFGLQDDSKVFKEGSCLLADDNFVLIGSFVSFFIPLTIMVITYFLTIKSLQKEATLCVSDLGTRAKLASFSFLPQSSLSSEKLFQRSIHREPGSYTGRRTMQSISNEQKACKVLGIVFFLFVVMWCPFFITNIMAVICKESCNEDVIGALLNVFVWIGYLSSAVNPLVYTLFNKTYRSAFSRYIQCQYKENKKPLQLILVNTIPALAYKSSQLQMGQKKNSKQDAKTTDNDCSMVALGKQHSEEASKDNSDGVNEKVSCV

Adenosine receptor A3 [37] = molecular target: T1, Adenosine receptor A3; assay: Binding affinity to mouse adenosine A3 receptor expressed in HEK293 cells measured by radioligand binding assay; format: cell-based
Adenosine receptor A3 [38] = molecular target: T2, Adenosine receptor A3; assay: Binding affinity to rat adenosine A3 receptor expressed in HEK293 cells measured by radioligand binding assay; format: cell-based

Adenosine receptor A1 (Rattus norvegicus), sequence (P25099 whole entry): as the sequence (P25099 whole entry) above

inhibition [1]: 25.5%
inhibition [2]: 38.8%
Ki (Adenosine receptor A3 [3]): 349 nM
Ki (Adenosine receptor A3 [4]): 216 nM
inhibition [5]: 20.2%
inhibition [6]: 27.4%
Ki (Adenosine receptor A3 [7]): 43.9 nM
inhibition [8]: 35.4%
inhibition (Adenosine receptor A2a [9]): 16.4%
inhibition [10]: 34.5%
inhibition [11]: 7.4%
inhibition [12]: 25.1%
Structure (SMILES): CCCOC(=O)c1c(-c2ccccc2)nc(CC)c(C(=O)SCC)c1CCC

Vd [13]: 1.8 L/kg
logP [14]: 4.68
Ki (Adenosine receptor A2b [15]): 189 nM
Cave [16]: 52 ng/mL
Ki (Adenosine receptor A2a [17]): 830 nM
Ki (Adenosine receptor A1 [18]): 162 nM
Ki [19]: 790 nM
Cave [20]: 95 ng/mL
Ki (Adenosine receptor A3 [3]): 9.61 nM
C0 at 8 h [21]: 760 ng/mL
Ki (Adenosine receptor A3 [4]): 8.53 nM
Ki (Adenosine receptor A1 [22]): 411 nM
Ki [23]: 3700 nM
Ki (Adenosine receptor A2a [24]): 121 nM
C0 at 8 h [25]: 628 ng/mL
clearance [26]: 40 mL/min/kg
half-life [27]: 42 min
Vd [28]: 1.9 L/kg
Ki (Adenosine receptor A1 [29]): 333 nM
Ki (Adenosine receptor A2b [30]): 163 nM
fraction unbound at 8 h [31]: 0.03
Ki (Adenosine receptor A2a [32]): 1150 nM
half-life [33]: 48 min
Ki (Adenosine receptor A2b [34]): 230 nM
fraction unbound at 8 h [35]: 0.03
Ki [36]: 960 nM
Structure (SMILES): Cc1cc(C)cc(-c2nc(NC(=O)c3cccnc3)sc2-c2ccncc2)c1

Kd (Adenosine receptor A3 [37]): 3.74 nM
Kd (Adenosine receptor A3 [38]): 2.8 nM
Structure (SMILES): [3H]c1cncc(C(=O)Nc2nc(-c3cc(C)cc(C)c3)c(-c3ccncc3)s2)c1
